Patent US8173636B2, “Hydroxylthienoquinolones and related compounds as anti-infective agents” (Achillion Pharmaceuticals, Inc., priority 2009, dated 2012)
Values after ≈ are worked out from the molar mass of the structure shown. Read-outs that look alike come from different tables or passages of the source.

Assays:
[1] = test system: fluoroquinolone-resistant S. aureus ATCC 700699; assay: Minimum inhibitory concentration (MIC) assay, broth microdilution, MRSA; assay type: cell-based; conditions: Staphylococcus aureus
How it was run: (§1)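 NCCLS broth microdilution in Mueller-Hinton II broth, two-fold dilutions giving 0.125–128 μg/mL final, inoculum ~1×10^6 cfu/mL. Plates incubated in ambient air, 37 °C, 18–24 h; MIC taken as lowest concentration preventing visible growth.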

Hep2 = assay: Cell viability staining with Alamar Blue (compound cytotoxicity); assay type: cell-based, human; conditions: Table II, comparison of R2 acetyl vs cyano
Experimental: To determine whether the microcidal effect observed against S. aureus and E. coli is specific to bacterial cells, compounds are screened for cell viability effects on several human cell types. Optimal cell density is first determined by plating cells in a 96-well plate standard sterile tissue culture plates in 100 μl media, 10% FBS at six cell densities from 500 cells/well to 15,000 cells/well. A cell free well containing only media is used as a control. Cells are incubated at 37° C. in a 5% CO2 incubator for 24 hours. 10% culture volume (10 ul) of Alamar Blue (Biosource, DAL1100, 100 mL) is then added. Cells are incubated at 37° C. in a 5% CO2 incubator and read in a Victor V plate reader, 544 nm excitation, 590 nm emission, at 3, 4, and 24 hours after the addition of Alamar Blue. The cell number vs. change in fluorescence is plotted to determine linearity of signal vs. cell number. The optimal density varies between 500-15,000 cells/well depending on the specific cell type. The optimal density is selected based on the highest number of cells that is still in the linear response range. Cells are plated at optimal cell density in a standard sterile tissue culture 96 well plate, and incubated at 37° C., O/N in a 5% CO2 incubator. 12 to 48 hours post-plating media is removed. The cells are washed 1 or 2 times with 1×PBS and replaced with fresh media containing the test compound in 1% DMSO. 24 to 72 hours after addition of compound, the media is removed, and the cells washed 1 to 2 times with 1×PBS. Fresh media containing 1/10 volume of Alamar Blue is then added. Plates are incubated 4 hours at 37° C. in a 5% CO2 incubator and read in a Victor V plate reader, 544 nm excitation, 590 nm emission. Compounds are diluted to 20 micromolar in 1% DMSO and media and screened in duplicate to obtain single concentration cytotoxicity data. Eight concentration points from 0.78 micromolar to 100 micromolar, run in duplicate, are used to determine cyclotoxicity CC50 values. Cells with 1% DMSO and media are used as a negative control, compounds having a known CC50 against a particular cell type are used as positive controls. The change in fluorescence vs. concentration of test compound is plotted to determine the cytotoxicity of the compound.

S. aureus ATCC 29213 = assay: Minimum inhibitory concentration (MIC) assay, broth microdilution, MSSA; assay type: cell-based; conditions: Staphylococcus aureus, Table I
How it was run: as §1

[2] = Table II, comparison of R2 acetyl vs cyano, read-out: MRSA
[3] = fluoroquinolone-resistant S. aureus ATCC 700699, Table I, read-out: MRSA MIC

| MIC [1, 2] | MIC (S. aureus ATCC 29213) | MIC [1, 3] | Structure (SMILES) | Cytoxicity (Hep2) |
| --- | --- | --- | --- | --- |
| 0.75 µg/mL (≈ 1.81 µM) |  |  | COc1c(N2CCNCC2)c(F)cc2c(=O)c3c(n(C4CC4)c12)SC(C#N)C3=O (stereo not shown) [Cmp 9, 9-cyclopropyl-6-fluoro-3-hydroxyl-8-methoxy-4-oxo-7-(piperazin-1-yl)-4,9-dihydrothieno[2,3-b]quinoline-2-carbonitrile] | 9 µM |
| 0.09 µg/mL (≈ 0.197 µM) |  |  | COc1c(N2CC[C@@H](C(C)(C)N)C2)c(F)cc2c(=O)c3c(n(C4CC4)c12)SC(C#N)C3=O (stereo partly drawn) [Cmp 10, (R)-7-(3-(2-aminopropan-2-yl)pyrrolidin-1-yl)-9-cyclopropyl-6-fluoro-3-hydroxyl-8-methoxy-4-oxo-4,9-dihydrothieno [2,3-b]quinoline-2-carbonitrile] | 2 µM |
|  | 0.03 µg/mL (≈ 0.0624 µM) | 0.25 µg/mL (≈ 0.52 µM) | COc1c(N2CCC(c3ncn[nH]3)CC2)c(F)cc2c(=O)c3c(n(C4CC4)c12)SC(C#N)C3=O (stereo not shown) [Cmp 48, 7-(4-(1H-1,2,4-triazol-5-yl)piperidin-1-yl)-9-cyclopropyl-6-fluoro-8-methoxy-3,4-dioxo-2,3,4,9-tetrahydrothieno [2,3-b]quinoline-2-carbonitrile] |  |
|  | 0.06 µg/mL (≈ 0.118 µM) | 0.5 µg/mL (≈ 0.981 µM) | COc1c(N2CC[C@@H](C(C)(C)NCCC#N)C2)c(F)cc2c(=O)c3c(n(C4CC4)c12)SC(C#N)C3=O (stereo partly drawn) [Cmp 49, 7-((R)-3-(2-(2-cyanoethylamino)propan-2-yl)pyrrolidin-1-yl)-9-cyclopropyl-6-fluoro-8-methoxy-3,4-dioxo-2,3,4,9-tetrahydrothieno[2,3-b]quinoline-2-carbonitrile] |  |
|  | 0.06 µg/mL (≈ 0.122 µM) | 1 µg/mL (≈ 2.03 µM) | COc1c(-c2ccnc(N3CCNCC3)c2)c(F)cc2c(=O)c3c(n(C4CC4)c12)SC(C#N)C3=O (stereo not shown) [Cmp 50, 9-cyclopropyl-6-fluoro-8-methoxy-3,4-dioxo-7-(2-(piperazin-1-yl)pyridin-4-yl)-2,3,4,9-tetrahydrothieno [2,3-b]quinoline-2-carbonitrile] |  |
|  | 0.03 µg/mL (≈ 0.0757 µM) | 0.5 µg/mL (≈ 1.26 µM) | COc1c(-c2cn[nH]c2)c(F)cc2c(=O)c3c(n(C4CC4)c12)SC(C#N)C3=O (stereo not shown) [Cmp 51, 9-cyclopropyl-6-fluoro-8-methoxy-3,4-dioxo-7-(1H-pyrazol-4-yl)-2,3,4,9-tetrahydrothieno[2,3-b]quinoline-2-carbonitrile] |  |
|  | 0.25 µg/mL (≈ 0.546 µM) | 2 µg/mL (≈ 4.37 µM) | COc1c(N2CCNC(C(N)=O)C2)c(F)cc2c(=O)c3c(n(C4CC4)c12)SC(C#N)C3=O (stereo not shown) [Cmp 52, 4-(2-cyano-9-cyclopropyl-6-fluoro-8-methoxy-3,4-dioxo-2,3,4,9-tetrahydrothieno[2,3-b]quinolin-7-yl) piperazine-2-carboxamide] |  |
|  | 0.13 µg/mL (≈ 0.271 µM) | 2 µg/mL (≈ 4.16 µM) | COc1c(N2CCCC(c3ncn[nH]3)C2)c(F)cc2c(=O)c3c(n(C4CC4)c12)SC(C#N)C3=O (stereo not shown) [Cmp 53, 7-(3-(1H-1,2,4-triazol-5-yl)piperidin-1-yl)-9-cyclopropyl-6-fluoro-8-methoxy-4-dioxo-2,3,4,9-tetrahydrothieno [2,3-b]quinoline-2-carbonitrile] |  |
|  | 0.13 µg/mL (≈ 0.303 µM) | 0.5 µg/mL (≈ 1.17 µM) | COc1c(N2CCC[C@H](N)C2)c(F)cc2c(=O)c3c(O)c(C#N)sc3n(C3CC3)c12 [Cmp 54, (S)-7-(3-aminopiperidin-1-yl)-9-cyclopropyl-6-fluoro-3-hydroxyl-8-methoxy-4-oxo-4,9-dihydrothieno[2,3-b] quinoline-2-carbonitrile] |  |
|  | 0.06 µg/mL (≈ 0.132 µM) | 0.5 µg/mL (≈ 1.1 µM) | COc1c(N2CCN(CC#N)CC2)c(F)cc2c(=O)c3c(O)c(C#N)sc3n(C3CC3)c12 [Cmp 55, 7-(4-(cyanomethyl)piperazin-1-yl)-9-cyclopropyl-6-fluoro-3-hydroxyl-8-methoxy-4-oxo-4,9-dihydrothieno [2,3-b]quinoline-2-carbonitrile] |  |
| 1 µg/mL (≈ 2.32 µM) | 0.25 µg/mL (≈ 0.579 µM) | 1 µg/mL (≈ 2.32 µM) | COc1c(N2CCNCC2)c(F)cc2c(=O)c3c(O)c(C(C)=O)sc3n(C3CC3)c12 [Cmp 57, 2-acetyl-9-cyclopropyl-6-fluoro-3-hydroxyl-8-methoxy-7-(piperazin-1-yl)thieno[2,3-b]quinolin-4(9H)-one] | 57 µM |
| 0.25 µg/mL (≈ 0.528 µM) | 0.13 µg/mL (≈ 0.275 µM) | 0.25 µg/mL (≈ 0.528 µM) | COc1c(N2CC[C@@H](C(C)(C)N)C2)c(F)cc2c(=O)c3c(O)c(C(C)=O)sc3n(C3CC3)c12 [Cmp 58, (R)-2-acetyl-7-(3-(2-aminopropan-2-yl)pyrrolidin-1-yl)-9-cyclopropyl-6-fluoro-3-hydroxyl-8-methoxythieno [2,3-b]quinolin-4(9H)-one] | 20 µM |
| 0.03 µg/mL (≈ 0.07 µM) | 0.02 µg/mL (≈ 0.0467 µM) | < 0.03 µg/mL | COc1c(N2CC[C@@H](CN)C2)c(F)cc2c(=O)c3c(O)c(C#N)sc3n(C3CC3)c12 [Cmp 59, (S)-7-(3-(aminomethyl)pyrrolidin-1-yl)-9-cyclopropyl-6-fluoro-3-hydroxyl-8-methoxy-4-oxo-dihydrothieno[2,3-b] quinoline-2-carbonitrile] | 0.06 µM |
| 0.06 µg/mL (≈ 0.135 µM) | 0.06 µg/mL (≈ 0.135 µM) | 0.06 µg/mL (≈ 0.135 µM) | COc1c(N2CC[C@@H](CN)C2)c(F)cc2c(=O)c3c(O)c(C(C)=O)sc3n(C3CC3)c12 [Cmp 60, (S)-2-acetyl-7-(3-(aminomethyl)pyrrolidin-1-yl)-9-cyclopropyl-6-fluoro-3-hydroxyl-8-methoxythieno [2,3-b]quinolin-4(9H)-one] | 11 µM |
|  | 0.13 µg/mL (≈ 0.291 µM) | 0.5 µg/mL (≈ 1.12 µM) | COc1c(N2CC[C@@H](CN)C2)c(F)cc2c(=O)c3c(O)c(C(N)=O)sc3n(C3CC3)c12 [Cmp 61, (S)-7-(3-(aminomethyl)pyrrolidin-1-yl)-9-cyclopropyl-6-fluoro-3-hydroxyl-8-methoxy-4-oxo-4,9-dihydrothieno [2,3-b]quinoline-2-carboxamide] |  |
|  | 0.5 µg/mL (≈ 1.03 µM) | 1 µg/mL (≈ 2.05 µM) | CCC(=O)c1sc2c(c1O)c(=O)c1cc(F)c(N3CC[C@@H](C(C)(C)N)C3)c(OC)c1n2C1CC1 [Cmp 62, (R)-7-(3-(2-aminopropan-2-yl)pyrrolidin-1-yl)-9-cyclopropyl-6-fluoro-3-hydroxyl-8-methoxy-2-propionylthieno [2,3-b]quinolin-4(9H)-one] |  |
| 0.13 µg/mL (≈ 0.294 µM) | 0.03 µg/mL (≈ 0.0678 µM) | 0.13 µg/mL (≈ 0.294 µM) | COc1c(N2CCCC(CN)C2)c(F)cc2c(=O)c3c(O)c(C#N)sc3n(C3CC3)c12 (stereo not shown) [Cmp 63, 7-(3-(aminomethyl)piperidin-1-yl)-9-cyclopropyl-6-fluoro-3-hydroxyl-8-methoxy-4-oxo-dihydrothieno[2,3-b] quinoline-2-carbonitrile] | 0.4 µM |
| 0.25 µg/mL (≈ 0.544 µM) | 0.13 µg/mL (≈ 0.283 µM) | 0.25 µg/mL (≈ 0.544 µM) | COc1c(N2CCCC(CN)C2)c(F)cc2c(=O)c3c(O)c(C(C)=O)sc3n(C3CC3)c12 (stereo not shown) [Cmp 64, 2-acetyl-7-(3-(aminomethyl)piperidin-1-yl)-9-cyclopropyl-6-fluoro-3-hydroxyl-8-methoxythieno [2,3-b]quinolin-4(9H)-one] | 19 µM |
|  | 0.5 µg/mL (≈ 1.09 µM) | 2 µg/mL (≈ 4.34 µM) | COc1c(N2CCCC(CN)C2)c(F)cc2c(=O)c3c(O)c(C(N)=O)sc3n(C3CC3)c12 (stereo not shown) [Cmp 65, 7-(3-(aminomethyl)piperidin-1-yl)-9-cyclopropyl-6-fluoro-3-hydroxyl-8-methoxy-4-oxo-4,9-dihydrothieno [2,3-b]quinoline-2-carboxamide] |  |
|  | 0.25 µg/mL (≈ 0.511 µM) | 0.5 µg/mL (≈ 1.02 µM) | COc1c(N2CCCC(=C(F)CN)C2)c(F)cc2c(=O)c3c(O)c(C(C)=O)sc3n(C3CC3)c12 [Cmp 66, 2-acetyl-7-(3-(2-amino-1-fluoroethylidene)piperidin-1-yl)-9-cycloprop-6-fluoro-3-hydroxyl-8-methoxythieno[2,3-b] quinolin-4(9H)-one] |  |
